Results reported in US6821981B2, “Azaheterocyclylmethyl derivatives of 2,3-dihydro-1,4-dioxino[2,3-f]-quinoline as 5-HT1A antagonists” (Wyeth, priority 2001, dated 2004).
pIC50, pKi: −log10 of the molar value. Counter-ions that a name gives are not always drawn. Like-named read-outs stand apart in the source and are kept apart here.

Legend:
human 5-HT1A receptors = target: T1, human 5-HT1A receptors (Homo sapiens, UniProt P08908); assay: [3H] 8-OH-DPAT displacement from 5-HT1A receptor; format: binding
T1 construct: expressed in transfected cells; host or cells: CHO cells
T1 sequence (P08908 1-422): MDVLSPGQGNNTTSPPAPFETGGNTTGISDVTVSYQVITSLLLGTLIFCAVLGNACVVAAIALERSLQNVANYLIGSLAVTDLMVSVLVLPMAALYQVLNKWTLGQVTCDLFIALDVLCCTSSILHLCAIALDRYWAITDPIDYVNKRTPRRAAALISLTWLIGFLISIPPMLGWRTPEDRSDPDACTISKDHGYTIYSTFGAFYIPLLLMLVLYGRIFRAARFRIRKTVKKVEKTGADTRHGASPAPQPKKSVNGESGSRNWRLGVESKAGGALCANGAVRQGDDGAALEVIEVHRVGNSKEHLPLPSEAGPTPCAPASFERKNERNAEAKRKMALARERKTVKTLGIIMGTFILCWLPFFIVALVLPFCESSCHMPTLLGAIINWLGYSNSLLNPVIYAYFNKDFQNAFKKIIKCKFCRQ
From the text: High affinity for the serotonin 5-HT1A receptor was established by testing the claimed compound's ability to displace [^3H] 8-OH-DPAT (dipropylaminotetralin) from the 5-HT1A serotonin receptor following a modification of the procedure of Hall et al., J. Neurochem. 44, 1685 (1985) which utilizes CHO cells stably transfected with human 5-HT1A receptors.

[1] = target: T2, cloned human 5-HT1A receptors (Homo sapiens, UniProt P08908); assay: 35S-GTPγS binding assay, antagonist activity versus 8-OH-DPAT; format: biochemical; conditions: for 5-HT1A Function Imax (maximum inhibitory effect): value in parentheses after IC50
T2 construct: expressed in transfected cells
T2 sequence (P08908 1-422): T1 sequence (P08908 1-422)
Method: Antagonist activity at 5-HT1A receptors was established by using a ^35S-GTPγS binding assay similar to that used by Lazareno and Birdsall (Br. J. Pharmacol. 109: 1120, 1993), in which the test compound's ability to affect the binding of ^35S-GTPγS to membranes containing cloned human 5-HT1A receptors was determined. Agonists produce an increase in binding whereas antagonists produce no increase but rather reverse the effects of the standard agonist 8-OH-DPAT. The test compound's maximum inhibitory effect is represented as the Imax, while its potency is defined by the IC50.

[2] = CHO cells stably transfected with human 5-HT1A receptors, [3H] 8-OH-DPAT, read-out: 5-HT1A Receptor Affinity KI
[3] = reversal of the effects of the standard agonist 8-OH-DPAT on 35S-GTPγS binding, read-out: 5-HT1A Function IC50

Row | Compound | melting point [°C] | pKi (human 5-HT1A receptors; [2]) | also measured
1 | Cc1ccc2c3c(ccc2n1)OCC(CN1CCC2(CC1)C(=O)NCN2c1ccccc1)O3 (stereo not shown) (as salt: fumarate) (hydrate or solvate) [Example 2, 8-{[8-Methyl-2,3-dihydro[1,4]dioxino[2,3-f]quinolin-2-yl]methyl}-1-phenyl-1,3,8-triazaspiro[4.5]decan-4-one] | 199 to 201 |  | 
2 | Cc1ccc2c3c(ccc2n1)OC[C@H](CN1CCC(n2c(=O)[nH]c4ccccc42)CC1)O3 (as salt: fumarate) (hydrate or solvate) [Example 3, 1-(1-{[8-Methyl-2,3-dihydro[1,4]dixino[2,3-f]quinlin-2-yl]methyl}piperidin-4-yl)-1,3-dihydro-2H-benzimidazol-2-one] | 194 to 196 |  | 
3 | Cc1ccc2c3c(ccc2n1)OCC(CN1CCC(C(=O)c2ccc(F)cc2)CC1)O3 (stereo not shown) (as salt: fumarate) (hydrate or solvate) [Example 5, (4-Fluorophenyl)(1-{[8-methyl-2,3-dihydro[1,4]dioxino[2,3-f]quinolin-2-yl]methyl}-4-piperidinyl)methanone] | 206 to 207 |  | 
4 | Cc1ccc2c3c(ccc2n1)OCC(CN1CCC(O)(c2cccc(C(F)(F)F)c2)CC1)O3 (stereo not shown) (as salt: fumarate) (hydrate or solvate) [Example 6, 1-{[8-Methyl-2,3-dihydro[1,4]dioxino[2,3-f]quinolin-2-yl]methyl}-4-[3-(trifluoromethyl)phenyl]-4-piperidinol] | 133 to 135 |  | 
5 | Cc1ccc2c3c(ccc2n1)OCC(CN1CC=C(c2ccccc2)CC1)O3 (stereo not shown) (as salt: fumarate) (hydrate or solvate) [Example 8, 8-Methyl-2-{[4-phenyl-3,6-dihydro-1(2H)-pyridinyl]methyl}-2,3-dihydro[1,4]dioxino[2,3-f]quinoline] | 185 to 188 |  | 
6 | CCc1ccc2c3c(ccc2n1)OCC(CN1CCC2(CC1)C(=O)NCN2c1ccccc1)O3 (stereo not shown) (as salt: fumarate) (hydrate or solvate) [Example 9, 8-{[8-Ethyl-2,3-dihydro[1,4]dioxino[2,3-f]quinolin-2-yl]methyl}-1-phenyl-1,3,8-triazaspiro[4.5]decan-4-one] | 207 to 209 |  | 
7 | O=C1NCN(c2ccccc2)C12CCN(CC1COc3ccc4ncccc4c3O1)CC2 (stereo not shown) (as salt: fumarate) [Example 1, 8-[2,3-Dihydro[1,4]dioxino[2,3-f]quinolin-2-ylmethyl]-1-phenyl-1,3,8-triazaspiro[4.5]decan-4-one] | 170 |  | 
8 | Cc1ccc2c3c(ccc2n1)OCC(CN1CCCCC1)O3 (stereo not shown) (as salt: hydrochloride) (hydrate or solvate) [Example 4, 8-Methyl-2-(piperidin-1-ylmethyl)-2,3-dihydro[1,4]dioxino[2,3-f]quinoline] | 278 to 280 |  | 
9 | Cc1ccc2c3c(ccc2n1)OCC(CN1CCC(C#N)(c2ccccc2)CC1)O3 (stereo not shown) (as salt: salt) [Example 7, 1-{[8-Methyl-2,3-dihydro[1,4]dioxino[2,3-f]quinolin-2-yl]methyl}-4-phenyl-4-piperidinecarbonitrile] | 185 to 187 |  | 
10 | O=C1NCN(c2ccccc2)C12CCN(CC1COc3ccc4ncccc4c3O1)CC2 (stereo not shown) [Example 1, 8-[2,3-Dihydro[1,4]dioxino[2,3-f]quinolin-2-ylmethyl]-1-phenyl-1,3,8-triazaspiro[4.5]decan-4-one] |  | 8.84 | pIC50 [1, 3]: 7.26; 5-HT1A Function Imax (maximum inhibitory effect) [1]: 100
11 | Cc1ccc2c3c(ccc2n1)OCC(CN1CCC2(CC1)C(=O)NCN2c1ccccc1)O3 (stereo not shown) [Example 2, 8-{[8-Methyl-2,3-dihydro[1,4]dioxino[2,3-f]quinolin-2-yl]methyl}-1-phenyl-1,3,8-triazaspiro[4.5]decan-4-one] |  | 8.75 | pIC50 [1, 3]: 7.19; 5-HT1A Function Imax (maximum inhibitory effect) [1]: 100
12 | Cc1ccc2c3c(ccc2n1)OC[C@H](CN1CCC(n2c(=O)[nH]c4ccccc42)CC1)O3 [Example 3, 1-(1-{[8-Methyl-2,3-dihydro[1,4]dixino[2,3-f]quinlin-2-yl]methyl}piperidin-4-yl)-1,3-dihydro-2H-benzimidazol-2-one] |  | 8.51 | pIC50 [1, 3]: 7.18; 5-HT1A Function Imax (maximum inhibitory effect) [1]: 85.0
13 | Cc1ccc2c3c(ccc2n1)OCC(CN1CCCCC1)O3 (stereo not shown) [Example 4, 8-Methyl-2-(piperidin-1-ylmethyl)-2,3-dihydro[1,4]dioxino[2,3-f]quinoline] |  | 7.29 | pIC50 [1, 3]: 6.32; 5-HT1A Function Imax (maximum inhibitory effect) [1]: 100
14 | Cc1ccc2c3c(ccc2n1)OCC(CN1CCC(C(=O)c2ccc(F)cc2)CC1)O3 (stereo not shown) [Example 5, (4-Fluorophenyl)(1-{[8-methyl-2,3-dihydro[1,4]dioxino[2,3-f]quinolin-2-yl]methyl}-4-piperidinyl)methanone] |  | 7.73 | 
15 | Cc1ccc2c3c(ccc2n1)OCC(CN1CCC(O)(c2cccc(C(F)(F)F)c2)CC1)O3 (stereo not shown) [Example 6, 1-{[8-Methyl-2,3-dihydro[1,4]dioxino[2,3-f]quinolin-2-yl]methyl}-4-[3-(trifluoromethyl)phenyl]-4-piperidinol] |  | 8.16 | 
16 | Cc1ccc2c3c(ccc2n1)OCC(CN1CCC(C#N)(c2ccccc2)CC1)O3 (stereo not shown) [Example 7, 1-{[8-Methyl-2,3-dihydro[1,4]dioxino[2,3-f]quinolin-2-yl]methyl}-4-phenyl-4-piperidinecarbonitrile] |  |  | pKi (human 5-HT1A receptors): 7.12; pIC50 [1]: 6.35; 5-HT1A Function Imax (maximum inhibitory effect) [1]: 50
17 | Cc1ccc2c3c(ccc2n1)OCC(CN1CC=C(c2ccccc2)CC1)O3 (stereo not shown) [Example 8, 8-Methyl-2-{[4-phenyl-3,6-dihydro-1(2H)-pyridinyl]methyl}-2,3-dihydro[1,4]dioxino[2,3-f]quinoline] |  | 8.10 | 
18 | CCc1ccc2c3c(ccc2n1)OCC(CN1CCC2(CC1)C(=O)NCN2c1ccccc1)O3 (stereo not shown) [Example 9, 8-{[8-Ethyl-2,3-dihydro[1,4]dioxino[2,3-f]quinolin-2-yl]methyl}-1-phenyl-1,3,8-triazaspiro[4.5]decan-4-one] |  | 8.55 | 
